Results taken from US20160039796A1, “BARETTIN AND DERIVATIVES THEREOF FOR MEDICAL USE, IN PARTICULAR FOR THE TREATMENT OF DISEASES RELATED TO OXIDATIVE STRESS OR INFLAMMATION, AND FOR PRESERVING OR WASHING ORGANS” (ABC Bioscience AS, priority 2013, published 2016).

Tests used:
[1] = FRAP (ferric reducing antioxidant power) assay; type: biochemical; conditions: for FRAP value: 30 μg/ml; for FRAP dose-response: FIG. 2
Procedure: The inventors used the biochemical assay FRAP (ferric reducing antioxidant power) to obtain an indication of the antioxidant potential of MBC-005 (isolated brominated) and MBC-007 (synthetic de-brominated).
Reagents were prepared according to benzie, I.F.F. et al. Analytical Biochemistry 1996, 239, 70-76 and carried out in a DTX 880 Multimode Detector (Beckman Coulter, Calif., USA) at 595 nm. Trolox (Sigma, 238813) was used to prepare the standard curve (0-250 μM; working concentration). The FRAP reagent (TPTZ (2,4,6-Tris(2-pyridyl)-s-triazine): Fluka, 93285; Fe: Merck 103943) was prepared daily. The assay was carried out in clear 96-well plates, with 20 μl sample and 150 μl FRAP-reagent added to each well in duplicates. Water was used as a blank. Samples were incubated at 37° C. for 30 min before reading the plate. The blank was subtracted from each sample and a standard curve was created from the average absorbance of the duplicated Trolox samples. The equation generated from the standard curve was used to calculate the trolox equivalents (TE) from each sample. Results were expressed as μM TE.

[2] = ORAC (oxygen radical absorbance capacity) assay; type: biochemical; conditions: for ORAC dose-response: FIG. 3
Procedure: The inventors used the biochemical assay ORAC (oxygen radical absorbance capacity) to obtain an indication of the antioxidant potential of MBC-005 (isolated brominated) and MBC-007 (synthetic de-brominated).
The method has been modified from Huang, D. et al., Journal of Agricultural and Food Chemistry 2002, 50, 4437-4444. The assay was carried out in black 96-well plates (Nunc 7350004) and using a Victor3 Plate Reader (Perkin Elmer, Mass., USA) at 37° C. (exitation 486 nm, emission 520 nm). All reagents were dissolved in 75 mM phosphate buffer (PB) (pH 7,4). Different concentrations of the MBC-005 and MBC-007 preparations were added in duplicates followed by addition of 125 μl fluorescein (Fluka, 46960) (52 nM final concentration). After a 15 minute incubation at 37° C., 60 μl AAPH (2,2′-Azobis(2-methylpropionamidine) dihydrochloride; Sigma-Aldrich, 440914) was quickly added to each sample (44 mM final concentration). Fluorescence was recorded 25 times at 37° C. with a 70 sec delay between repeats. Trolox (0-25 μM working concentration) was included in each run to make a standard curve. PB was used as a blank and for the 0 μM Trolox sample. Area under the curve (AUC) was calculated by subtracting the AUCBlank values. A standard curve was created using the Trolox values and Trolox equivalents of the samples were calculated from the resulting equation. Results were expressed as μM TE.

HepG2 cells [3] = assay: cellular lipid peroxidation antioxidant activity (CLPAA) assay; type: cell-based; conditions: for activity in CLPAA assay (lipid peroxidation in HepG2 cells): FIG. 4, normalized to positive control CumOOH
Procedure: (§1) HepG2 cells were grown in MEM Earle's medium (F0325) supplemented with gentamycin (10 μg/ml, A2712), non-essential amino acids (1%, K0293), sodium pyruvate (1 mM, L0473), L-alanyl-L-glutamine (2 mM, K0302) and fetal bovine serum (10%, S0115) and incubated at 37° C. with 5% CO2. Media and supplements were from Biochrom (Berlin, Germany).
The inventors used the cellular lipid peroxidation antioxidant activity (CLPAA) assay. This assays measures the intracellular ROS (reactive oxygen species) and membrane antioxidant activity, respectively. The brominated barettin molecule gave a 55% reduction in oxidation compared to the control in the CLPAA assay.
Approximately 80.000 HepG2 cells per well were seeded in black 96 well plates with clear bottom (#3603, Corning, N.Y., USA) and incubated overnight. The cells were labelled with C11-BODIPY (#D3861, Invitrogen, Eugene, Oreg.) for 30 min and incubated for 1 h with various concentrations of the test compounds. Cumene hydroperoxide (cumOOH, #247502, Sigma-Aldrich, St. Louis, Mo.) was added to initiate lipid peroxidation and the plate was immediately placed in a Victor3 Plate Reader (Perkin Elmer, Mass., USA). Both red (590/7 nm (exitation), 632/45 nm (emission)) and green (485/14 nm, 520/10 nm) fluorescence was recorded during ˜1 h. Cells were washed with PBS between additions of new reagents. Total reaction volume was 100 μl. All incubations were carried out at 37° C. with 5% CO2. Percent inhibition was calculated relative to the positive control (cumOOH without test compound).

[4] = system: IL-6 release from THP-1 cells; assay: LPS-induced release of IL-6 from THP-1 cells (ELISA); type: cell-based, human
Procedure: Monocytes are well-recognised to respond to inflammatory stimuli by releasing a range of cytokines; IL-6 is a highly expressed pro-inflammatory cytokine in activated monocytes. The principle of this assay was to compare the effect of pre-incubating human cells from a monocyte-derived cell line (THP-1) with a known anti-inflammatory drug (dexamethasone; Dex), or a range of concentrations of barettin, on IL-6 generation in response to the inflammatory stimulus, lipopolysaccharide (LPS).
THP-1 cells (Health Protection Agency, Porton Down, UK) were maintained at 37° C. with 5% CO2 in RPMI 1640 containing 10% foetal bovine serum, 2 mM L-glutamine with 100 IU/ml penicillin and 100 μg/ml streptomycin (PAA laboratories Ltd, Yeovil, UK). The cells were grown in suspension and then plated out in 24-well plates at 2×10^5 cells per well.
Treatments: • a. vehicle control (RPMI 1640+0.5% DMSO) • b. 10 μM Dex for 24 h • c. 10 μg/ml LPS for 24 h • d. Pre-treated with 10 μM Dex for 30 min followed by 10 μg/ml lipopolysaccharide LPS for 24 h • e. Pre-treated with barettin at 1, 3, 10, 30 and 100 μg/ml for 30 min followed by 10 μg/ml LPS for 24 h
The concentration of Dex and barettin remained consistent throughout the incubation period; the final DMSO concentration was 0.5%. Cells were incubated at 37° C. and 5% CO2 for 24 hours.
Following incubations, cells and supernatants were harvested into 1.5 ml Eppendorf® tubes and supernatants were cleared of cells and debris by centrifugation at 300 g for 3 min at room temperature. Supernatants were transferred to clean 1.5 ml Eppendorf® tubes and stored at −80° C.
IL-6 expression was measured by ELISA (eBioscience, human IL-6 Platinum ELISA) according to the manufacturer's instructions. Data were collected using a VarioSkan Flash plate reader and Skanit software v2.4.3 (Thermo Fisher Scientific, Basingstoke, UK).

HepG2 cells [5] = assay: cytotoxicity assay, HepG2 cells (CellTiter 96 AQueous One Solution); type: cell-based; conditions: 2 h and 24 h exposure, concentrations tested (FIG. 6)
Procedure: (§2) Cytotoxicity was tested on HepG2 and MRC-5 cells (normal lung fibroblasts) for 2 h (HepG2) and 24 h (HepG2 and MRC-5) using the CellTiter 96 AQueous One Solution Assay (Promega). MBC-005 and MBC-007 were not toxic to the HepG2 or the MRC5 cells in the concentrations tested (FIG. 6 and FIG. 7). In the CLPAA assays the cells were exposed to the test compounds for 1 h before washed. Thus a 2 h exposure would detect whether the MBC-compounds are likely to cause cell death and false results in the CLPAA assays. MRC5 and HepG2 cells were also exposed to the barettin compounds for 24 h. This would reveal more long-term damage or whether any toxicity was caused by something other than membrane lysis. […] This was above the concentrations used in the CLPAA assay.
as §1, with “HepG2 and MRC-5” for “HepG2”
(§3) Cytotoxicity was studied in HepG2 and MRC-5 cells (normal human lung fibroblasts) for 2 h (HepG2) and 24 h (HepG2 and MRC-5). […] Absorbance was measured at 485 nm in a DTX 880 Multimode Detector. Results were calculated as % survival compared to a positive control.

[6] = system: MRC-5 cells (normal human lung fibroblasts); assay: cytotoxicity assay, MRC-5 cells (CellTiter 96 AQueous One Solution); type: cell-based; conditions: 24 h exposure, concentrations tested (FIG. 7)
Procedure: as §2
as §1, with “HepG2 and MRC-5” for “HepG2”
as §3

[7] = cytotoxicity of isolated barettin over 72 h (data not shown); type: cell-based
From the text: MBC-005 and MBC-007 were not toxic to the HepG2 or the MRC5 cells in the concentrations tested (FIG. 6 and FIG. 7). […] This would reveal more long-term damage or whether any toxicity was caused by something other than membrane lysis. […] This was above the concentrations used in the CLPAA assay.

[8] = system: tumor necrosis factor-alpha (TNF-α) in LPS induced monocytes (THP-1 cells); assay: inhibition of TNF-α secretion in LPS induced monocytes (ELISA); type: cell-based, human; conditions: 75 and 100 μg/ml, LPS induced THP-1 cells
Procedure: (§4) Tumor necrosis factor-alpha (TNF-α) and Interleukin-1 beta (IL-1β) are both cytokines (small cell-signalling protein molecules) linked to inflammatory responses. Thus, the present inventors have tested the ability of isolated barettin (designated MCB-011 in the present experiment) to inhibit the secretion of these cytokines in LPS induces monocytes (THP-1 cells).
(§5) THP-1 cells were grown in RPMI-1640 supplemented with gentamycin and FBS and incubated at 37° C. with 5% CO2. To differentiate the monocytes into macrophages, 50 ng/ml PMA was added. Approximately 10^5 cells supplemented with 50 ng/ml PMA were seeded in 96 well plates and incubated at 37° C., 5% CO2 for 48 hours. The cells were controlled using a microscope after 24 h to make sure they had started to differentiate. After 48 h the cells were washed and new RPMI (w/o PMA) added before another 24 h incubation.
(§6) The cells were added 90 μl fresh medium and 10 μl test compound at various concentrations in duplex. After incubation for 1 h, 1 ng/ml LPS was added to all samples except negative controls. Incubation for 6 h at 37° C. followed. The reactions were stopped by freezing the plates at −80° C. immediately after incubation. One day prior to ELISA testing MaxiSorp 96F-well plates were coated with 2 μg/ml capture antibody (Ab) and placed in the refrigerator overnight. […] Results were read at DTX880 at 405 nm.

[9] = system: Interleukin-1 beta (IL-1β) in LPS induced monocytes (THP-1 cells); assay: inhibition of IL-1β secretion in LPS induced monocytes (ELISA); type: cell-based, human; conditions: 75 and 100 μg/ml, LPS induced THP-1 cells
Procedure: as §4, §5, §6

N=C(N)NCCCC1NC(=O)/C(=C/c2c[nH]c3cc(Br)ccc23)NC1=O (stereo not drawn) [MBC-005, cyclo-[(6-bromo-8-en-tryptophan)-arginine]]
FRAP value [1]: 77 μM TE | FRAP dose-response [1]: dose-response activity was observed | ORAC value (Trolox equivalents) ([2]; 30 μg/ml (71.6 μM)): 5.5 μM TE | ORAC dose-response [2]: dose-response activity was observed | activity in CLPAA assay (lipid peroxidation in HepG2 cells) (HepG2 cells [3]): acts in a dose-dependent manner to reduce lipid peroxidation | reduction in oxidation compared to the control (HepG2 cells [3]; HepG2 cells, cumOOH-induced lipid peroxidation): 55% | effect on LPS-induced generation of IL-6, significance ([4]; 1 μg/ml (~2.4 μN)): significant | anti-inflammatory effect versus cytotoxicity ([4]; 30 μg/ml and below): genuine anti-inflammatory effect | effect on LPS-induced generation of IL-6 ([4]; 1-100 μg/ml, 30 min pre-treatment, 10 μg/ml LPS 24 h): clear concentration-dependent effect | IL-6 expression with compound alone (no LPS) ([4]; pilot data, THP-1 cells, compound alone): did not result in the up-regulation of IL-6 expression | cytotoxicity to HepG2 cells (HepG2 cells [5]): not toxic | cytotoxicity to MRC5 cells [6]: not toxic | concentration at which cytotoxicity appears [7]: ≥ 100 µg/mL

N=C(N)NCCC[C@@H]1NC(=O)/C(=C/c2c[nH]c3ccccc23)NC1=O [MBC-007]
FRAP dose-response [1]: dose-response activity was observed | ORAC dose-response [2]: dose-response activity was observed | activity in CLPAA assay (lipid peroxidation in HepG2 cells) (HepG2 cells [3]; listed as de-brominated synthetic analogue): did not show any significant activity | cytotoxicity to HepG2 cells (HepG2 cells [5]): not toxic | cytotoxicity to MRC5 cells [6]: not toxic

N=C(N)NCCC[C@@H]1NC(=O)/C(=C/c2c[nH]c3cc(Br)ccc23)NC1=O [MBC-011, Barettin]
inhibition of TNF-α [8]: significant inhibition | inhibition of IL-1β [9]: significant inhibition

O=c1cc(-c2ccc(O)c(O)c2)oc2cc(O)cc(O)c12 [luteolin, reference compound]
FRAP value [1]: 151 μM TE
